These results are taken from US7858790B2, “Modulators of muscarinic receptors” (Vertex Pharmaceuticals Incorporated, priority 2006, dated 2010).

In one assay the target is T1, M4 muscarinic receptor (Homo sapiens, UniProt P08173).
T1 construct: expressed in transfected cells; host or cells: CHO (M4-CHO recombinant cell line)
T1 sequence (P08173 1-479): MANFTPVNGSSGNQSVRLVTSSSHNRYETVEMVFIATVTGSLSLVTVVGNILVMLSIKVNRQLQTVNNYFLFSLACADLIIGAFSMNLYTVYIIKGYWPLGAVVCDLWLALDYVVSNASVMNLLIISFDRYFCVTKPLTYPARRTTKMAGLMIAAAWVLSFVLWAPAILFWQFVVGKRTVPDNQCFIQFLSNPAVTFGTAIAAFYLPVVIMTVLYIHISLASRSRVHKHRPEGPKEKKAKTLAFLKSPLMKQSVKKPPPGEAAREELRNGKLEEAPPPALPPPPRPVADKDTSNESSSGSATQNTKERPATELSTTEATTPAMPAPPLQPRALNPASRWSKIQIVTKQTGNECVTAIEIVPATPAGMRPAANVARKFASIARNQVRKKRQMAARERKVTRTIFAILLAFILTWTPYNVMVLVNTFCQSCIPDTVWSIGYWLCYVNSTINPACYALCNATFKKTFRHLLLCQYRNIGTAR
The assay can be described thus: Functional mobilization of intracellular calcium (FLIPR) in CHO cells expressing M4 muscarinic receptor. Format: cell-based. To be noted: for M4 Activity: CHO cells expressing M4, calcium mobilization; for Emax: CHO, 100% efficacy is the maximum response obtained with the Carbachol control. How it is done:
(§1) VI. Assays for Detecting and Measuring Inhibition Properties of Compounds Functional Mobilization of Intracellular Calcium to Determine Muscarinic Receptor Activity:
(§2) CHO cells expressing muscarinic receptors (M1 to M5) are grown as monolayers in tissue culture flasks at 37° C. in a humidified atmosphere containing 5% CO2 and passaged every 3-5 days. The growth media is Dulbecco's modified eagles medium (DMEM, Gibco Cat# 12430-054), containing 25 mM Hepes and supplemented with Fetal Bovine Serum (Hyclone, cat# SH30071.03), 0.1 mM of MEM non-essential amino acids (GIBCO, Cat# 11140-050), 1 mM MEM Sodium Pyruvate (GIBCO Cat# 11360-070) and 100 units/ml of Penicillin G and 100 μg/ml of Streptomycin (GIBCO Cat# 15140-122). The recombinant muscarinic receptor cell lines are grown under antibiotic pressure with media containing 25 μg/ml zeocin and 500 μg/ml G418 (M1-CHO), 4 μg/ml puromycin, 50 μg/ml zeocin and 2.5 μg/ml blasticidin (M2 and M4-CHO) or 50 μg/ml zeocin and 4 μg/ml puromycin (M3 and M5-CHO).
(§3) Cells are harvested at 80-90% confluence using Versene (GIBCO Cat# 15040-066), collected by centrifugation and seeded 18-24 hours prior to running the calcium assay at a density of 5,000-10,000 cells/well in […], clear-bottomed 384-well plates (BD Biocoat, poly-D-lysine, Cat#356663). The day of the experiment, the cells are washed with a plate washer (Bioteck Instruments, ELX 405) using bath buffer (140-mM NaCl, 4.5-mM KCl, 2-mM CaCl2, 1-mM MgCl2, 10-mM Hepes-Na, 10-mM Glucose, pH 7.4, with NaOH) containing 1 mM Probenecid. Next, the calcium dye Fluo-3 (25 μl/well of Fluo-3 μM at 4 μM, Molecular Probes F-1241, in Bath 1 buffer containing 1 mM Probenecid) is added to the 25 μl of Bath 1 remaining in each well after the plate wash and the dye is loaded at 37° C. in the tissue culture incubator for 60-90 min. The fluorescent dye is removed using the plate washer with Bath 1 containing 1 mM Probenecid, leaving 25 μl/well of this solution after the wash. Alternatively, cells can be loaded with the calcium indicator from Molecular Devices (Calcium 3 Assay Reagents, Cat # R7181) adding 5 μl of a 5× solution dye in Bath 1 containing 1 mM Probenecid (10 ml per dye flask cat# R7182 to generate a solution 20×) to 20 μl of the same buffer. After loading for 60 min, the experiment can be run without having to remove the dye.
(§4) Compounds are prepared at a 2× fold concentration in a 96-well plate (round bottom, Costar Corning cat# 3656), by reconstituting the pre-spotted compounds in bath 1 containing 1 mM probenecid. The final concentration DMSO is 0.5%, and the amount of DMSO is normalized across the assay plate. To determine an agonist action of the compounds on muscarinic receptors, the reconstituted compounds are added (25 μl compound/well) to the cell assay plate (containing 25 μl/well) using the multi-channel robotic system of the FLIPR 3 Instrument (Molecular Devices, Sunnyvale, Calif.). To determine a functional inhibitory-action of the compounds on muscarinic receptors, the reconstituted compounds are added (25 μl compound/well) to the assay plate and pre-incubated for 15 min prior to adding 25 μl of Carbachol at 3× the EC80 for each muscarinic subtype. Alternatively, the compounds can be co-applied simultaneously with the agonist. In both assay modes, the fluorescence is recorded for 60 sec (excitation wavelength is […] and emission wavelength 540 nm) using the FLIPR 3 instrument.
(§5) The potency, efficacy and selectivity of the muscarinic compounds were evaluated by screening the compound activity across the whole family (M1 to M5 cells). Compounds were also screened for activity on other proteins such as other GPCRs and ion channels to determine selectivity on M4 receptors.
(§6) Examples of activities and efficacies of the muscarinic compounds of formulae (I, Ia, and Ib) on modulating M1 and M4 receptors are shown below in Table 8. […]

The next assay has as its target T2, M1 muscarinic receptor (Homo sapiens, UniProt P11229).
T2 construct: expressed in transfected cells; host or cells: CHO (M1-CHO recombinant cell line)
T2 sequence (P11229 1-460): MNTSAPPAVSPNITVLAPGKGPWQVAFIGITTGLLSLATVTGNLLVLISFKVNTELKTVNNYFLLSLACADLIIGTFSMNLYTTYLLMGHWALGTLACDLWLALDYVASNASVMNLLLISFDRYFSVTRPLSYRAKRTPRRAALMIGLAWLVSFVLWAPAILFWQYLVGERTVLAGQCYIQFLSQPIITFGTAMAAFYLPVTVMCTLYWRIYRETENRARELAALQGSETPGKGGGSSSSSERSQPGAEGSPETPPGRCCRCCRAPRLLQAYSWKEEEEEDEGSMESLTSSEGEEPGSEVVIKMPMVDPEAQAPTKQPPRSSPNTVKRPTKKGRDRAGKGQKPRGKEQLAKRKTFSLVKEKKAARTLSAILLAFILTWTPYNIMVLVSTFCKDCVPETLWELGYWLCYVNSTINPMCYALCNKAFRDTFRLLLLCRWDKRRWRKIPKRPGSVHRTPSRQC
Put plainly: Functional mobilization of intracellular calcium (FLIPR) in CHO cells expressing M1 muscarinic receptor. Format: cell-based. To be noted: for M1 Activity: CHO cells expressing M1, calcium mobilization; for Emax: CHO, 100% efficacy is the maximum response obtained with the Carbachol control. As for the experimental part: as §1, §2, §3, §4, §5, §6

Usually Emax stands for the maximal effect, on the per cent scale that the assay sets. `CC(C)(C)CCN1CCC2(CC=C(C(=O)N3CCCC3)c3ccccc32)CC1` [compound 11]: at M4 muscarinic receptor, the “M4 Activity” value is listed as “++ (activity was measured to be from 2.0 μM to 10.0 μM)” and the Emax was less than 25%. For the same compound, on M1 muscarinic receptor, the “M1 Activity” value was “++ (activity was measured to be from 2.0 μM to 10.0 μM)” and the Emax was 25 to 100%.
`CCOC(=O)N1C2CCC1CC(N1CCC3(C=C(C(=O)O)c4ccccc43)CC1)C2` (centres unmarked) [compound 13]: at M4 muscarinic receptor, the “M4 Activity” value was “+++ (activity was measured to be less than 2.0 μM)” and the Emax was 25 to 100%. Moreover, at M1 muscarinic receptor, the “M1 Activity” value was “+++ (activity was measured to be less than 2.0 μM)” and the Emax is 25 to 100%.
As for `CNC(=O)C1=CC2(CCN(CCC(C)C)CC2)c2ccccc21` [compound 15], on M4 muscarinic receptor, the “M4 Activity” value is “+++ (activity was measured to be less than 2.0 μM)” and the Emax was 25 to 100%. At M1 muscarinic receptor, the “M1 Activity” value is listed as “+ (activity was measured to be greater than 10.0 μM)” and the Emax was in the range of 25 to 100%.
As for `CCC(CC)NC(=O)C1=CC2(CCN(C3CCCC3)CC2)c2ccccc21` [compound 17], on M4 muscarinic receptor, the “M4 Activity” value is reported as “+ (activity was measured to be greater than 10.0 μM)” and the Emax was in the range of 25 to 100%. Moreover, on M1 muscarinic receptor, the “M1 Activity” value is listed as “+ (activity was measured to be greater than 10.0 μM)” and the Emax was less than 25%.
For `CCC(CC)NC(=O)C1=CC2(CCN(C3CCN(C(=O)N4CCOCC4)CC3)CC2)c2ccccc21` [compound 18], at M4 muscarinic receptor, the “M4 Activity” value was “+ (activity was measured to be greater than 10.0 μM)” and the Emax is less than 25%. Also, at M1 muscarinic receptor, the “M1 Activity” value is given as “+ (activity was measured to be greater than 10.0 μM)” and the Emax is less than 25%.
`CNC(=O)C1=CC2(CCN(CCC(C)CCCC(C)(C)OC)CC2)c2ccccc21` (centres unmarked) [compound 19]: on M4 muscarinic receptor, the “M4 Activity” value is “+ (activity was measured to be greater than 10.0 μM)” and the Emax is less than 25%. Moreover, on M1 muscarinic receptor, the “M1 Activity” value is recorded as “+ (activity was measured to be greater than 10.0 μM)” and the Emax was 25 to 100%.
As for `CCC(CC)NC(=O)C1=CC2(CCN(C3CCN(C(=O)C(C)C)CC3)CC2)c2ccccc21` [compound 22], at M4 muscarinic receptor, the “M4 Activity” value is “+ (activity was measured to be greater than 10.0 μM)” and the Emax is less than 25%. Also, at M1 muscarinic receptor, the “M1 Activity” value is on record as “+ (activity was measured to be greater than 10.0 μM)” and the Emax was less than 25%.
Regarding `C=CCOC(=O)N1CCC(N2CCC3(C=C(C(=O)NC(CC)CC)c4ccccc43)CC2)CC1` [compound 24], on M4 muscarinic receptor, the “M4 Activity” value is reported as “++ (activity was measured to be from 2.0 μM to 10.0 μM)” and the Emax lay in the range of 25 to 100%. Besides, at M1 muscarinic receptor, the “M1 Activity” value is “+ (activity was measured to be greater than 10.0 μM)” and the Emax lay within 25 to 100%.
In the case of `CC(C)(C)CCN1CCC2(C=C(C(=O)NC3CCCCC3)c3ccccc32)CC1` [compound 25], on M4 muscarinic receptor, the “M4 Activity” value was “+ (activity was measured to be greater than 10.0 μM)” and the Emax is less than 25%. On M1 muscarinic receptor, the “M1 Activity” value was “++ (activity was measured to be from 2.0 μM to 10.0 μM)” and the Emax was 25 to 100%.
For `CCN(CC)C(=O)C1=CC2(CCN(CCC(C)(C)C)CC2)c2ccccc21` [compound 26] the same measures were “+ (activity was measured to be greater than 10.0 μM)”, less than 25%, “+ (activity was measured to be greater than 10.0 μM)” and less than 25%.
In the case of `CCOC(=O)N1CCC(N2CCC3(C=C(C(=O)NC(CC)CC)c4ccccc43)CC2)CC1` [compound 28], on M4 muscarinic receptor, the “M4 Activity” value is “+++ (activity was measured to be less than 2.0 μM)” and the Emax is 25 to 100%. On M1 muscarinic receptor, the “M1 Activity” value is listed as “++ (activity was measured to be from 2.0 μM to 10.0 μM)” and the Emax lay within 25 to 100%.
As to `O=C(C1=CCC2(CCN(C3C[C@@H]4CC[C@@H]3C4)CC2)c2ccccc21)N1CCCC1` (some centres unmarked) [compound 29], on M4 muscarinic receptor, the “M4 Activity” value is on record as “+ (activity was measured to be greater than 10.0 μM)” and the maximal response (Emax) was less than 25%. For the same compound, on M1 muscarinic receptor, the “M1 Activity” value is “+ (activity was measured to be greater than 10.0 μM)” and the Emax was less than 25%.
Consider `CCC(CC)NC(=O)C1=CC2(CCN(CC3CC4C=CC3C4)CC2)c2ccccc21` (centres unmarked) [compound 30], for which, on M4 muscarinic receptor, the “M4 Activity” value is reported as “+++ (activity was measured to be less than 2.0 μM)” and the Emax lay in the range of 25 to 100%. Moreover, on M1 muscarinic receptor, the “M1 Activity” value is “+ (activity was measured to be greater than 10.0 μM)” and the Emax was less than 25%.
For `O=C(NC1CC1)C1=CC2(CCN(CC3CC4C=CC3C4)CC2)c2ccccc21` (centres unmarked) [compound 32] the same measures were “+++ (activity was measured to be less than 2.0 μM)”, 25 to 100%, “+ (activity was measured to be greater than 10.0 μM)” and 25 to 100%.
For `CCC(CC)NC(=O)C1=CC2(CCN(C3CCN(C(=O)N(C)C)CC3)CC2)c2ccccc21` [compound 33] the same measures were “+ (activity was measured to be greater than 10.0 μM)”, less than 25%, “+ (activity was measured to be greater than 10.0 μM)” and less than 25%.
As for `O=C(C1=CCC2(CCN(CC3CC4C=CC3C4)CC2)c2ccccc21)N1CCCC1` (centres unmarked) [compound 34], at M4 muscarinic receptor, the “M4 Activity” value is “+ (activity was measured to be greater than 10.0 μM)” and the Emax was less than 25%. At M1 muscarinic receptor, the “M1 Activity” value was “+++ (activity was measured to be less than 2.0 μM)” and the Emax fell in the range of 25 to 100%.
With `N#CC1=CCC2(CCN(C3C[C@@H]4CC[C@@H]3C4)CC2)c2ccccc21` (some centres unmarked) [compound 35], on M4 muscarinic receptor, the “M4 Activity” value is given as “++ (activity was measured to be from 2.0 μM to 10.0 μM)” and the Emax is less than 25%. Moreover, on M1 muscarinic receptor, the “M1 Activity” value was “+ (activity was measured to be greater than 10.0 μM)” and the Emax was less than 25%.
